Data as given in publication PMC12326988, “Synthetic host defense peptide inhibits SARS-CoV-2 replication in vitro” (Antimicrobial Agents and Chemotherapy, 2025).
≈ marks a conversion by molar mass, not a printed value. Square brackets hold non-standard residues; d marks the D form. Ends that are not written are not given here. Peptide text beside a SMILES is read from it.

What was measured:
[1] = target: binding between SARS-CoV-2 Wuhan RBD-Fc and hACE2-AP (UniProt P0DTC2+Q9BYF1); set-up: species or system SARS-CoV-2; human
[2] = test system: SARS-CoV-2 hCoV-19/New Zealand/NZ1_patient/2020; assay type: cell-based
[3] = test system: VSV-g-pseudotyped virus; assay type: cell-based; settings: virus exposed to agent 1 h, then HEK293T-hACE2 cells
[4] = test system: binding of the SARS-CoV-2 RBD to its human ACE2 receptor; settings: cited from earlier work
[5] = in vitro; settings: African green monkey
[6] = test system: SARS-CoV-2 hCoV-19/New Zealand/NZ1_patient/2020; settings: hCoV-19/New Zealand/NZ1 patient/2020, 72 h
[7] = test system: SARS-CoV-2 hCoV-19/New Zealand/NZ1_patient/2020; settings: hCoV-19/New Zealand/NZ1 patient/2020, 72 h; remark: listed apart in the source
[8] = test system: SARS-CoV-2 γ spike-pseudotyped virus; assay type: cell-based; settings: virus exposed to agent 1 h, then HEK293T-hACE2 cells
[9] = test system: SARS-CoV-2 (Wuhan) spike-pseudotyped virus; settings: for EC50, entry of pseudotyped virus: HEK293T-ACE2 cells incubated with agent prior to pseudotyped virus
[10] = in vitro; settings: African green monkey; human
[11] = test system: authentic SARS-CoV-2 virions; settings: 100 µg/mL, 1 h
[12] = test system: SARS-CoV-2-Nluc; settings: 72 h
[13] = test system: ELVIRA Flu A cells; settings: 50 µg/mL
[14] = test system: MDCK cells; settings: 50 µg/mL

Chain of binding between SARS-CoV-2 Wuhan RBD-Fc and hACE2-AP (Q9BYF1 18-740, one chain of several): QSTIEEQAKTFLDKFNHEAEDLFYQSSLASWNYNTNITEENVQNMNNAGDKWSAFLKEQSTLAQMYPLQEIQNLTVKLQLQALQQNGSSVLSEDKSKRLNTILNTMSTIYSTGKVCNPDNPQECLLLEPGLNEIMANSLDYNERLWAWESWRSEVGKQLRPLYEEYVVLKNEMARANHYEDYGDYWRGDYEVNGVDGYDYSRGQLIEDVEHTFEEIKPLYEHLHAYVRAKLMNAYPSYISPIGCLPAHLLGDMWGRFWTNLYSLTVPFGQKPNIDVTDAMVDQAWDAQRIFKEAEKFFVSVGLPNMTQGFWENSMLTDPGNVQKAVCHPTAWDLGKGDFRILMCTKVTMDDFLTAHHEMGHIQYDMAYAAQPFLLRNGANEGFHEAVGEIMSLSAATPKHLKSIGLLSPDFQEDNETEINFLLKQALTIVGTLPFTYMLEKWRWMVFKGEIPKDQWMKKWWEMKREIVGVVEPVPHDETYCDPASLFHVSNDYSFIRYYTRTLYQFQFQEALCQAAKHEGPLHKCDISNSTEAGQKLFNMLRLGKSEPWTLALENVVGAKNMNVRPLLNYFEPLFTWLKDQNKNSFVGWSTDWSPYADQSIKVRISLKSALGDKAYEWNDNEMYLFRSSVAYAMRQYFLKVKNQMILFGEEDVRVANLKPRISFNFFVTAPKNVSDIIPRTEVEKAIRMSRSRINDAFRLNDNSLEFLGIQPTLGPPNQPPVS

shACE2
IC50, inhibition of hACE2-RBD binding [1]: 6.6 µg/mL
inhibition of SARS-CoV-2 replication [2]: 72%
NT50 [3]: > 100 µg/mL

HNP1
affinity, interference with binding of SARS-CoV-2 RBD to human ACE2 [4]: 160 nM

LL-37
affinity, interference with binding of SARS-CoV-2 RBD to human ACE2 [4]: 25.5 nM

CC[C@@H](C)[C@@H](NC(=O)[C@@H](C)NC(=O)[C@@H](CCCNC(=N)N)NC(=O)[C@@H](Cc1c[nH]c2ccccc12)NC(=O)[C@@H](CCC(N)=O)NC(=O)[C@H](N)C(C)C)C(=O)N[C@H](CCCNC(=N)N)C(=O)N[C@@H](C(=O)N[C@H](CCCNC(=N)N)C(=O)N[C@@H](C(=O)N[C@@H](C(=O)N[C@H](CCCNC(=N)N)C(N)=O)[C@H](C)CC)C(C)C)C(C)C [DJK-5, vqwrairvrvir-NH2] (H-[dV][dQ][dW][dR][dA][dI][dR][dV][dR][dV][dI][dR]-NH2)
CC50 [5]: 517 µg/mL
EC50 VeroE6/TMPRSS2 [6]: 29.31 µg/mL (≈ 18.9 µM)
EC50 Vero [7]: 25.16 µg/mL (≈ 16.2 µM)

CCC(CC)COC(=O)[C@H](C)N[P@](=O)(OC[C@H]1O[C@@](C#N)(c2ccc3c(N)ncnn23)[C@H](O)[C@@H]1O)Oc1ccccc1 [Remdesivir, remdesivir, reference compound]
CC50 [5]: > 100 µM
inhibition of SARS-CoV-2 replication [2]: 98%

CC[C@@H](C)[C@@H](NC(=O)[C@@H](CCCCN)NC(=O)[C@@H](CC(C)C)NC(=O)[C@H](N)C(C)C)C(=O)N[C@H](CCCCN)C(=O)N[C@@H](C(=O)N[C@H](CCCCN)C(=O)N[C@@H](C(=O)N[C@H](Cc1c[nH]c2ccccc12)C(=O)N[C@@H](C(=O)N[C@@H](C(=O)N[C@H](CCCCN)C(N)=O)C(C)C)C(C)C)[C@H](C)CC)C(C)C [D-3007, vlkikvkiwvvk-NH2] (H-[dV][dL][dK][dI][dK][dV][dK][dI][dW][dV][dV][dK]-NH2)
CC50 [5]: 708 µg/mL
EC50 VeroE6/TMPRSS2 [6]: 30.53 µg/mL (≈ 21 µM)
EC50 Vero [7]: 23.86 µg/mL (≈ 16.4 µM)

CC[C@H](C)[C@H](NC(=O)CN)C(=O)NCC(=O)N[C@@H](C)C(=O)N[C@H](C(=O)N[C@@H](CC(C)C)C(=O)N[C@@H](CCCCN)C(=O)N[C@H](C(=O)N[C@@H](CC(C)C)C(=O)N[C@H](C(=O)N[C@H](C(=O)NCC(=O)N[C@@H](CC(C)C)C(=O)N1CCC[C@H]1C(=O)N[C@@H](C)C(=O)N[C@@H](CC(C)C)C(=O)N[C@H](C(=O)N[C@@H](CO)C(=O)N[C@@H](Cc1c[nH]c2ccccc12)C(=O)N[C@H](C(=O)N[C@@H](CCCCN)C(=O)N[C@@H](CCCNC(=N)N)C(=O)N[C@@H](CCCCN)C(=O)N[C@@H](CCCNC(=N)N)C(=O)N[C@@H](CCC(N)=O)C(=O)N[C@@H](CCC(N)=O)C(N)=O)[C@@H](C)CC)[C@@H](C)CC)[C@@H](C)O)[C@@H](C)O)C(C)C)C(C)C [melittin]
NT50 [8]: 11.6 µg/mL
NT50 [3]: 5.51 µg/mL
EC50, entry of pseudotyped virus [9]: 13.2 µg/mL
NT50 ([9]; agent incubated with pseudotyped virus 1 h, then HEK293T-hACE2 cells): 12.5 µg/mL
viability [10]: 51.7%
mean number of intact virus particles per field [11]: 1.3

VRLIVAVRIWRR-NH2 [IDR-1018]
CC50 [5]: 686 µg/mL
EC50 VeroE6/TMPRSS2 [6]: 28.72 µg/mL
EC50 Vero [7]: 21.79 µg/mL

CC[C@@H](C)[C@@H](N)C(=O)N[C@H](Cc1c[nH]c2ccccc12)C(=O)N[C@H](CC(C)C)C(=O)N[C@H](CCCNC(=N)N)C(=O)N[C@H](CC(C)C)C(=O)N[C@H](CCCCN)C(=O)N[C@@H](C(=O)N[C@@H](C(=O)N[C@H](CC(C)C)C(=O)N[C@H](CCCCN)C(=O)N[C@H](CCCNC(=N)N)C(=O)N[C@H](CCCCN)C(N)=O)C(C)C)C(C)C [D-3006, iwlrlkvvlkrk-NH2] (H-[dI][dW][dL][dR][dL][dK][dV][dV][dL][dK][dR][dK]-NH2)
EC50 [12]: 5.4 µg/mL (≈ 3.48 µM)
cell viability [13]: did not affect the viability
CC50 [5]: 430 µg/mL
cell viability [14]: did not affect the viability
EC50 VeroE6/TMPRSS2 [6]: 5.37 µg/mL (≈ 3.46 µM)
EC50, entry of pseudotyped virus [9]: 5.84 µg/mL
EC50 Vero [7]: 1.57 µg/mL (≈ 1.01 µM)
CC50 at 48 h [10]: > 100 µg/mL
